From patent US11555014B2, “High penetration prodrug compositions of prostaglandins and related compounds” (Techfields Pharma Co., Ltd., priority 2006, dated 2023)

Legend:
[1] = Solubility in water; type: physicochemical
Experimental: 37.7 g (0.1 mol) of sodium 11,15-dihydroxy-9-oxoprost-13-en-1-oate was dissolved in 100 ml of acetonitrile. 26.1 g (0.1 mol) of 2-Bromo-N,N-diethylethylamine.HBr and 8.6 g of sodium bicarbonate were added into the reaction mixture. The mixture was stirred for overnight at RT. The solvents were evaporated off. 250 ml of ethyl acetate was added into the reaction mixture and the mixture was washed with water (3×100 ml). The organic solution was dried over anhydrous sodium sulfate. Sodium sulfate was removed by filtration. 6 g of acetic acid was added into the reaction mixture with stirring. Hexane (200 ml) was added. The solid product was collected by filtration. After drying, it yielded 42 g of the desired product (81.8%). Hygroscopic product; Solubility in water: 100 mg/ml; Elementary analysis: C28H51NO7; MW: 513.37. Calculated % C, 65.47; H, 10.01; N, 2.73; O, 21.80. Found % C, 65.42; H, 10.03; N, 2.70; O, 21.85.
43.7 g (0.1 mol) of 11,15-diacetoxy-9-oxoprosta-5,13-dien-1-oic acid was dissolved in 300 ml of chloroform. 20.6 g of N,N′-Dicyclohexylcarbodiimide was added into the reaction mixture. 11.7 g of N,N-diethylaminoethylamine was added into the reaction mixture. The mixture was stirred for 3 hours at RT. The solid was removed by filtration. The chloroform solution was washed with 5% NaHCO3 (2×100 ml) and water (3×100 ml). The organic solution was dried over anhydrous sodium sulfate. Sodium sulfate was removed by filtration. 6 g of acetic acid was added into the reaction mixture with stirring. Hexane (200 ml) was added. The solid product was collected by filtration. After drying, it yielded 45 g of the desired product (85.8%). Hygroscopic product; Solubility in water: 100 mg/ml; Elementary analysis: C34H59NO9S; MW: 657.90. Calculated % C, 62.07; H, 9.04; N, 2.13; O, 21.89; S, 4.87. Found % C, 62.02; H, 9.06; N, 2.11; O, 21.95; S, 4.86.
49.9 g (0.1 mol) of 9,11,15-triacetoxyprost-13-en-1-oic acid was dissolved in 300 ml of chloroform. 20.6 g of N,N′-Dicyclohexylcarbodiimide was added into the reaction mixture. 13.1 g of dimethylaminoethyl mercaptan was added into the reaction mixture. The mixture was stirred for 3 hours at RT. The solid was removed by filtration. The chloroform solution was washed with 5% NaHCO3 (2×100 ml) and water (3×100 ml). The organic solution was dried over anhydrous sodium sulfate. Sodium sulfate was removed by filtration. 6 g of acetic acid was added into the reaction mixture with stirring. Hexane (200 ml) was added. The solid product was collected by filtration. After drying, it yielded 45 g of the desired product (85.8%). Hygroscopic product; Solubility in water: 100 mg/ml; Elementary analysis: C32H53NO9; MW: […] Calculated % C, 64.51; H, 8.97; N, 2.35; O, 24.17. Found % C, 64.47; H, 8.99; N, 2.34; O, 24.20.
37.7 g (0.1 mol) of sodium 9,11,15-trihydroxyprosta-5,13-dien-1-oate was dissolved in 100 ml of acetonitrile. 39 g (0.15 mol) of 2-Bromo-N,N-diethylethylamine.HBr in ethyl acetate was added into the reaction mixture. The mixture was stirred for 3 h at RT. Then 8 g of sodium bicarbonate was added into the reaction mixture. The mixture is stirred for another 2 h at RT. The solvents were evaporated off. 250 ml of ethyl acetate was added into the reaction mixture and the mixture was washed with water (3×100 ml). The organic solution was dried over anhydrous sodium sulfate. Sodium sulfate was removed by filtration. 6 g of acetic acid was added into the reaction mixture with stirring. […] Calculated % C, 65.47; H, 10.01; N, 2.73; O, 21.80. […]

[2] = In vitro penetration rate across isolated human skin in modified Franz cells; conditions: 10% solution in pH 7.4 phosphate buffer (0.2 M), n=5
Experimental: The penetration rates of HPPs and their parent drugs through human skin were measured in vitro by modified Franz cells. The Franz cells have two chambers, the top sample chamber and the bottom receiving chamber. The human skin tissue (360-400 μm thick) that separates the top and the receiving chambers was isolated from the anterior or posterior thigh areas.
The compound tested (2 mL, 20% in 0.2 M phosphate buffer, pH. 7.4) were added to the sample chamber of a Franz cell. The receiving chamber contains 10 ml of 2% bovine serum albumin in saline which was stirred at 600 rpm. The cumulative amounts of the tested compounds penetrating the skin versus time were determined by high-performance liquid chromatography (HPLC) method.

[3] = system: cat eye; experiment: Irritative effect or ocular discomfort in the cat eye after topical application; type: in vivo; conditions: dose 0.001% topical, first 2 hours, scale 0 (no discomfort) to 4 (maximal irritation, complete lid closure)
Experimental: Irritative effect or ocular discomfort in the cat eye of naturally occurring and modified prostaglandins and their novel prodrugs were evaluated during the first hours after the topical application of the respective test drug. The ocular discomfort was graded on a scale from 0 to 4, 0 indicating complete absence of any signs of discomfort, and 4 indicating maximal irritation as obvious from complete lid closure.

[4] = system: cats with ocular hypertension; experiment: Intraocular pressure (IOP) reduction in cats with ocular hypertension produced by laser trabeculoplasty; type: in vivo, cat; conditions: for Intraocular pressure, 24 hours after administration / Intraocular pressure, 36 hours after administration / Intraocular pressure, 48 hours after administration / Intraocular pressure, 60 hours after administration / Intraocular pressure, 72 hours after administration: dose 0.001%, one drop topical every 12 hours, 6 doses; for Intraocular pressure, baseline: prior to treatment, group dosed 0.001%
Experimental: The ability of certain compounds of the present invention to reduce intraocular pressure (IOP) was evaluated in cats with ocular hypertension produced by previously done laser trabeculoplastry. IOP was determined with a pneumatonometer after light corneal anesthesia with dilute proparacaine. Baseline IOP was determined prior to treatment with the test compound aqueous solution. 6 divided doses were administered over a period of 3 days (once every 12 hours). IOP was determined 24 hours after the initial dose and then once every 12 hours. The therapeutically efficient amount is typically between 0.001 and 0.01% in pH 7.2 phosphate buffer (0.1 M). The treatment was carried out in that one drop (about 30 micro liter) of the composition. The results of N,N-diethylaminoethyl 11,15-dihydroxy-9-oxoprost-13-en-1-oate.AcOH (A), N,N-diethylaminoethyl 11,15-dihydroxyl-9-oxoprosta-5,13-dien-1-oate.AcOH (B), N,N-diethylaminoethyl 9,11,15-trihydroxyprosta-5,13-dien-1-oate.AcOH(C), N,N-diethylaminoethyl 9,11-dihydroxy-15-keto-20-ethylprost-5,13-dien-1-oate.AcOH (9,11-dihydroxy-15-keto-20-ethylprostaglandin F2α N,N-diethylaminoethyl ester) (D), N,N-diethylaminoethyl (Z)-7-{(1R,2R,3R,5S)-3,5-dihydroxy-2-[(1E,3R)-3-hydroxy-4-[(α,α,α-trifluoro-m-tolyl)oxy]-1-butenyl]cyclopentyl}-5-heptenoate.AcOH (E), N,N-diethylaminoethyl (Z)-7{(1R,2R,3R,5S)-3,5-dihydroxy-2-[(3R)-3-hydroxy-5-phenylpentyl]cyclopentyl}-5-heptenoate.AcOH (F), and N,N-diethylaminoethyl (Z)-7-{(1R,2R,3R,5S)-3,5-Dihydroxy-2-[(1E,3S)-3-hydroxy-5-phenyl-1-pentenyl]cyclopentyl}-heptenoate.AcOH (G) are shown in Table 2.

[5] = system: rabbit eye; experiment: Conjunctival hyperemia in the rabbit eye after topical application; type: in vivo; conditions: dose 0.001% topical, first 2 hours, scale 0 (no hyperemia) to 4 (marked hyperemia with conjunctive chemosis)
Experimental: Conjunctival hyperemia in the rabbit eye of naturally occurring and modified prostaglandins and their novel prodrugs was evaluated during the first 2 hours after topical application of the respective test drug. The conjunctival hyperemia was graded on a scale from 0 to 4, 0 indicating complete absence of any hyperemia, and 4 indicating marked hyperemia with conjunctive chemosis.

[6] = system: rats; experiment: Sexual behaviour (solicitation, copulation) of rats after application to genital area; type: in vivo, rat
Experimental: The HPP of the invention can diffuse through human skin in very high rate (˜1 mg/h/cm^2) and can provide almost side-effects-free methods of treating erectile dysfunction or enhancing female sexual arousal. About 0.01 ml of 0.0005% [˜0.05 μg (microgram)] N,N-diethylaminoethyl 11,15-dihydroxy-9-oxoprost-13-en-1-oate.AcOH in pH 7.0 phosphate buffer (0.1 M) was applied to genital area of male rats (30 rats) once per day for 5 days.
When same amount of N,N-diethylaminoethyl 11,15-dihydroxy-9-oxoprost-13-en-1-oate.AcOH in pH 7.0 phosphate buffer (0.1 M) were applied to genital area of both male rats (30 rats) and female rats (30 rates) once per day for 5 days.

[7] = about 0.01 ml of 0.0005% (~0.05 μg) applied to genital area of male rats once per day for 5 days
[8] = same amount applied to genital area of both male and female rats once per day for 5 days

Molecule: CC(=O)O.CCCCCC(C=C[C@H]1C(OC(C)=O)CC(OC(C)=O)[C@@H]1CCCCCCC(=O)SCCN(C)C)OC(C)=O (stereo partly shown) [S—(N,N-dimethylaminoethyl) 9,11,15-triacetoxythioprost-13-en-1-oate.AcOH]
- Solubility in water [1]: 100 mg/mL

Molecule: CC(=O)O.CCN(CC)CCOC(=O)CCC/C=C\C[C@@H]1[C@@H](CC[C@@H](O)CCc2ccccc2)[C@H](O)C[C@@H]1O [N,N-diethylaminoethyl (Z)-7{(1R,2R,3R,5S)-3,5-dihydroxy-2-[(3R)-3-hydroxy-5-phenylpentyl]cyclopentyl}-5-heptenoate.AcOH]
- In vitro penetration rate (apparent flux), prodrug compounds [2]: 0.95 mg/cm^2/h
- Degree of irritative effect [3]: 1
- Intraocular pressure, 24 hours after administration [4]: 15.6 ± 0.5
- Intraocular pressure, 36 hours after administration [4]: 15.7 ± 0.4
- Intraocular pressure, 48 hours after administration [4]: 15.6 ± 0.5
- Intraocular pressure, 60 hours after administration [4]: 15.5 ± 0.4
- Intraocular pressure, 72 hours after administration [4]: 15.6 ± 0.6
- Intraocular pressure, baseline [4]: 22.5 ± 0.5
- Degree of irritative effect (conjunctival hyperemia) [5]: 1

Molecule: CC(=O)O.CCCCCC(O)C=CC1C(O)CC(=O)C1CCCCCCC(=O)OCCN(CC)CC (stereo not shown) [N,N-diethylaminoethyl 11,15-dihydroxy-9-oxoprost-13-en-1-oate.AcOH]
- In vitro penetration rate (apparent flux), prodrug compounds [2]: 1.01 mg/cm^2/h
- Solubility in water [1]: 100 mg/mL
- Increase in copulation compared to rats not given the drug [6, 7]: 4 fold
- Increase in solicitation compared to rats not given the drug [6, 7]: 6 fold
- Discomfort of treated rats ([6]; applied to genital area of rats once per day for 5 days): did not show any discomfort
- Increase in copulation compared to rats not given the drug [6, 8]: 6 fold
- Increase in solicitation compared to rats not given the drug [6, 8]: 6 fold

Molecule: CC(=O)O.CCN(CC)CCOC(=O)CCC/C=C\C[C@@H]1[C@@H](/C=C/[C@@H](O)COc2cccc(C(F)(F)F)c2)[C@H](O)C[C@@H]1O [N,N-diethylaminoethyl (Z)-7-{(1R,2R,3R,5S)-3,5-dihydroxy-2-[(1E,3R)-3-hydroxy-4-[(α,α,α-trifluoro-m-tolyl)oxy]-1-butenyl]cyclopentyl}-5-heptenoate.AcOH]
- In vitro penetration rate (apparent flux), prodrug compounds [2]: 0.91 mg/cm^2/h
- Degree of irritative effect [3]: 1
- Intraocular pressure, 24 hours after administration [4]: 15.1 ± 0.4
- Intraocular pressure, 36 hours after administration [4]: 15.0 ± 0.5
- Intraocular pressure, 48 hours after administration [4]: 15.0 ± 0.4
- Intraocular pressure, 60 hours after administration [4]: 14.9 ± 0.3
- Intraocular pressure, 72 hours after administration [4]: 15.1 ± 0.4
- Intraocular pressure, baseline [4]: 22.1 ± 0.4
- Degree of irritative effect (conjunctival hyperemia) [5]: 1

Molecule: CC(=O)O.CCN(CC)CCOC(=O)CCC/C=C\C[C@@H]1[C@@H](/C=C/[C@@H](O)CCc2ccccc2)[C@H](O)C[C@@H]1O [N,N-diethylaminoethyl (Z)-7-{(1R,2R,3R,5S)-3,5-Dihydroxy-2-[(1E,3S)-3-hydroxy-5-phenyl-1-pentenyl]cyclopentyl}-heptenoate.AcOH]
- In vitro penetration rate (apparent flux), prodrug compounds [2]: 0.85 mg/cm^2/h
- Degree of irritative effect [3]: 1
- Intraocular pressure, 24 hours after administration [4]: 15.2 ± 0.6
- Intraocular pressure, 36 hours after administration [4]: 15.4 ± 0.5
- Intraocular pressure, 48 hours after administration [4]: 15.5 ± 0.4
- Intraocular pressure, 60 hours after administration [4]: 15.4 ± 0.6
- Intraocular pressure, 72 hours after administration [4]: 15.4 ± 0.5
- Intraocular pressure, baseline [4]: 22.4 ± 0.6
- Degree of irritative effect (conjunctival hyperemia) [5]: 1

Molecule: N,N-diethylaminoethyl 11,15-diacetoxy-9-oxoprosta-5,13-dien-1-oamide.AcOH
- Solubility in water [1]: 100 mg/mL

Molecule: CC(=O)O.CCCCCC(O)C=C[C@H]1C(O)CC(O)[C@@H]1CC=CCCCC(=O)OCCN(CC)CC (stereo partly shown) [N,N-diethylaminoethyl 9,11,15-trihydroxyprosta-5,13-dien-1-oate.AcOH]
- In vitro penetration rate (apparent flux), prodrug compounds [2]: 0.94 mg/cm^2/h
- Degree of irritative effect [3]: 1
- Solubility in water [1]: 100 mg/mL
- Intraocular pressure, 24 hours after administration [4]: 15.5 ± 0.5
- Intraocular pressure, 36 hours after administration [4]: 15.6 ± 0.6
- Intraocular pressure, 48 hours after administration [4]: 15.7 ± 0.5
- Intraocular pressure, 60 hours after administration [4]: 15.6 ± 0.7
- Intraocular pressure, 72 hours after administration [4]: 15.5 ± 0.6
- Intraocular pressure, baseline [4]: 22.5 ± 0.7
- Degree of irritative effect (conjunctival hyperemia) [5]: 1
